Test [1] deals with HeLa cells. Briefly: Cellular uptake and intracellular distribution of rhodamine B-labeled peptoids by live-cell confocal imaging. The class given is cell-based, human. The note with it: 1 × 10^4 HeLa wt cells, 1 µM peptoid, 24 h, 37 °C, confocal fluorescence imaging, co-staining Hoechst 33342 and Mitotracker Green. The procedure: All procedures with mammalian cells were carried out under sterile conditions. 1 × 10^4 HeLa (human cervix carcinoma) cells were plated into each well of a 8-well µslide from IBIDI (Ibitreat, Martinsried, Germany) and cultured in 200 µL Dulbecco’s modified Eagle’s medium, high glucose, (DMEM, Invitrogen, Karlsruhe, Germany) supplemented with 10% fetal calf serum (FCS, PAA) and1 U/mL penicillin/streptomycin at 37 °C, 5% CO2.
The purified peptoids were dissolved in bidistilled water to yield a 2 mM stock solution and were further diluted with 10% DMEM to yield the respective incubation media. The cells were cultured as described above were incubated with the different peptoids at final concentrations of 1–10 µM. Cellular uptake of the peptoids was measured by live-cell imaging after 1 and 24 h as fixation would alter the intracellular distribution as described for other polycationic species.
Visualization of the peptoids was achieved by confocal microscopy using a Leica TCS-SP5 II, equipped with a DMI6000 microscope. The peptoids were excited at 561 nm using a DPSS laser. […] Fluorescence emission was measured at 417–468 nm for the detection of the nuclei, at 499–552 nm for the detection of the mitochondria, and 593–696 nm for the detection of the rhodamine B labeled peptoids. […]

The test system of test [2] is mitochondria of HeLa cells. Briefly: Co-localization with the mitochondrial marker Mitotracker Green (Pearson's correlation of fluorescence profiles). The note with it: live-cell confocal fluorescence imaging, co-staining with 100 nM Mitotracker Green, 37 °C. Format: cell-based, human.
Method: HeLa cells were treated with 1 and 10 µM of the corresponding peptoids for 1 and 24 h. […] However, for the better visualization of the organellar accumulation the incubation period was prolonged to 24 h. Co-localization experiments were performed by co-staining of the mitochondria with the mitochondrial marker Mitotracker Green^TM (Figure 5 and Figure 6).
By colocalizing the peptides with the mitochondrial marker Mitotracker Green^TM Pearson’s correlation coefficients (Rr) of the corresponding fluorescence profiles could be calculated reflecting mitochondrial specificity.
All procedures with mammalian cells were carried out under sterile conditions. […]
The purified peptoids were dissolved in bidistilled water to yield a 2 mM stock solution and were further diluted with 10% DMEM to yield the respective incubation media. […] Cellular uptake of the peptoids was measured by live-cell imaging after 1 and 24 h as fixation would alter the intracellular distribution as described for other polycationic species.
Visualization of the peptoids was achieved by confocal microscopy using a Leica TCS-SP5 II, equipped with a DMI6000 microscope. […] Fluorescence emission was measured at 417–468 nm for the detection of the nuclei, at 499–552 nm for the detection of the mitochondria, and 593–696 nm for the detection of the rhodamine B labeled peptoids. […]

The values that follow come from PMC3816671, “Cell Penetrating Peptoids (CPPos): Synthesis of a Small Combinatorial Library by Using IRORI MiniKans” (Pharmaceuticals, 2012).

Regarding RhoB-Npmb-Nlys3-NH2 [compound 11], the Intracellular localization result in test [1] is recorded as “mitochondrial localization”. Also, the “Pearson's correlation coefficient (Rr) of the fluorescence profiles of peptoid and Mitotracker Green, reflecting mitochondrial specificity” value in test [2] is recorded as “+0.68”.
